# Experimental data as given in patent publication EP3202813A1, “CURABLE COMPOSITION AND MOLDED ARTICLE COMPRISING THE COMPOSITION” (Telene SAS, priority 2016, dated 2017).
# Test: Half-life t1/2CT of radical generators, calculated by Arrhenius formulae from supplier data
# Assay type: physicochemical
# Text: The half-life of the radical generators used in the compositions for different curing temperatures CT have been calculated by using the well-known formulae given below and data obtained by the supplier of the radical generators (AkzoNobel) (Tables 1-4) kd = A⋅e^(−Ea/RT) [formula] t½ = (ln2)/kd [formula] • Ea = 127.52 kJ/mole • A = 7.59E+13 s^-1 • R = 8.3142 J/mole·K • T = (273.15+°C) K Table 1: The half-life t1/2CT of Trigonox 29C at different curing temperatures CT
# kd = A⋅e^(−Ea/RT) [formula] t½ = (ln2)/kd [formula] • Ea = 124.90 kJ/mole • A = 1.54E+14 s^-1 • R = 8.3142 J/mole·K • T = (273.15+°C) K Table 2: The half-life t1/2CT of Trigonox 21S at different curing temperatures CT
# kd = A⋅e^(−Ea/RT) [formula] t½ = (ln2)/kd [formula] • Ea = 140.78 kJ/mole • A 1.94E+15 s^-1 • R = 8.3142 J/mole·K • T =(273.15+°C) K Table 3: The half-life t1/2CT of Trigonox 42S at different curing temperatures CT
# kd = A⋅e^(−Ea/RT) [formula] t½ = (ln2)/kd [formula] • Ea = 153.46 kJ/mole • A = 4.20E+15 s^-1 • R = 8.3142 J/mole·K • T = (273.15+°C) K Table 4: The half-life t1/2CT of Trigonox B at different curing temperatures CT
smiles,measurement,setting,value
"CC(C)(C)OOC(C)(C)C [Trigonox B, tert-butyl peroxide]",t1/2,T 80 °C,2291.85 h
same,t1/2 (h),T 80 °C,"2291,8 h"
same,t1/2 (min),T 80 °C,"137511,0 min"
same,t1/2,T 90 °C,543.4131 h
same,t1/2 (h),T 90 °C,"543,4 h"
same,t1/2 (min),T 90 °C,"32604,8 min"
same,t1/2,T 95 °C,272.481 h
same,t1/2 (h),T 95 °C,"272,5 h"
same,t1/2 (min),T 95 °C,"16348,8 min"
same,t1/2,T 100 °C,139.18 h
same,t1/2 (h),T 100 °C,"139,2 h"
same,t1/2 (min),T 100 °C,"8350,8 min"
same,t1/2,T 105 °C,72.3653 h
same,t1/2 (h),T 105 °C,"72,4 h"
same,t1/2 (min),T 105 °C,"4341,9 min"
same,t1/2,T 110 °C,38.2736 h
same,t1/2 (h),T 110 °C,"38,3 h"
same,t1/2 (min),T 110 °C,"2296,4 min"
same,t1/2,T 120 °C,11.239 h
same,t1/2 (h),T 120 °C,"11,2 h"
same,t1/2 (min),T 120 °C,"674,4 min"
same,t1/2,T 130 °C,3.5075 h
same,t1/2 (h),T 130 °C,"3,5 h"
same,t1/2 (min),T 130 °C,"210,4 min"
same,t1/2,T 150 °C,0.4028 h
same,t1/2 (h),T 150 °C,"0,4 h"
same,t1/2 (min),T 150 °C,"24,2 min"
same,t1/2,T 190 °C,0.00944 h
same,t1/2 (h),T 190 °C,"0,01 h"
same,t1/2 (min),T 190 °C,"0,6 min"
